Entries after “also recorded” stand apart in the source; their conditions may differ. Ends that are not written are not given here. * marks the point of attachment. Biotin = O=C1N[C@H]2[C@H](CS[C@H]2CCCCC(=O)*)N1
B1: EF: recombinant fusion of four copies of E7ΔNLS and FlaB, SEQ ID NO: 24 (protein)
chain: MIDGPAGQAEPDRAHYNIVTFCCKCDSTLRLCVQSTHVDIRTLEDLLMGTLGIVCPICSQKPEFIDGPAGQAEPDRAHYNIVTFCCKCDSTLRLCVQSTHVDIRTLEDLLMGTLGIVCPICSQKPVDIDGPAGQAEPDRAHYNIVTFCCKCDSTLRLCVQSTHVDIRTLEDLLMGTLGIVCPICSQKPVDIDGPAGQAEPDRAHYNIVTFCCKCDSTLRLCVQSTHVDIRTLEDLLMGTLGIVCPICSQKPKLMAVNVNTNVAAMTAQRYLNNANSAQQTSMERLSSGFKINSAKDDAAGLQISNRLNVQSRGLDVAVRNANDGISIAQTAEGAMNETTNILQRMRDLSLQSANGSNSKSERVAIQEEVTALNDELNRIAETTSFGGNKLLNGTYGTKAMQIGADNGEAVMLSLKDMRSDNVMMGGVSYQAEEGKDKNWNVAAGDNDLTIALTDSFGNEQEIEINAKAGDDIEELATYINGQTDLVKASVGEGGKLQIFAGNNKVQGEIAFSGSLAGELGLGEGKNVTVDTIDVTTVQGAQESVAIVDAALKYVDSHRAELGAFQNRFNHAISNLDNINENVNASKSRIKDTDFAKETTQLTKTQILSQASSSILAQAKQAPNSALSLLGLEHHHHHH
modifications: 4xE7deltaNLS::FlaB (EF)
B2: FlaB: flagellin B (FlaB) derived from Vibrio vulnificus, SEQ ID NO: 23 (protein)
chain: MAVNVNTNVAAMTAQRYLNNANSAQQTSMERLSSGFKINSAKDDAAGLQISNRLNVQSRGLDVAVRNANDGISIAQTAEGAMNETTNILQRMRDLSLQSANGSNSKSERVAIQEEVTALNDELNRIAETTSFGGNKLLNGTYGTKAMQIGADNGEAVMLSLKDMRSDNVMMGGVSYQAEEGKDKNWNVAAGDNDLTIALTDSFGNEQEIEINAKAGDDIEELATYINGQTDLVKASVGEGGKLQIFAGNNKVQGEIAFSGSLAGELGLGEGKNVTVDTIDVTTVQGAQESVAIVDAALKYVDSHRAELGAFQNRFNHAISNLDNINENVNASKSRIKDTDFAKETTQLTKTQILSQASSSILAQAKQAPNSALSLLG
modifications: FlaB (F)

What was measured:
[1] = system: cervical lymph node cells, splenic dendritic cells, and bone marrow-derived dendritic cell; test: Cellular uptake of DC-targeting peptides in lymph node cells, splenic DCs and BMDCs (FACS); type: cell-based, mice; details: biotinylated peptides, 2 hours, FACS gated on CD11c+
Protocol: (§1) Bone marrow (BM) cells were isolated by flushing femurs and tibias of C57BL/6 mice, and red blood cells (RBCs) were depleted by ACK lysis (Gibco, A10492-01). The cells were centrifuged and strained through a 70 μm filter before being resuspended in RPMI 1640 supplemented with 10% heat-inactivated FBS, 100 units/ml penicillin, and 100 μg/ml streptomycin. The cells were resuspended in complete RPMI 1640 culture medium containing GM-CSF (10 ng/ml; R&D Systems, 415-ML-010) and IL4 (10 ng/ml; R&D Systems, 415-ML-010), inoculated into a cell culture dish, and cultured at 37° C. and 5% CO2. The culture medium was refreshed every two days. On day 7 or 8, DCs loosely bound to the bottom were collected by gentle pipetting. Splenic DCs were prepared by CD11c+ MicroBeads MACS (Miltenyi Biotec, 130-052-001) following the manufacturer's instructions.
(§2) Peptides were synthesized using […] chemistry, purified using high-pressure liquid chromatography to more than 95% purity, and biotinylated in the side chain (AnyGen Inc., South Korea). Peptides were dissolved in appropriate solvents according to the manufacturer's instructions to a concentration of 0.5 mg/ml. To test CD11c^+ cell targeting by the synthesized peptides, cLNs, splenic DCs, and BMDCs were treated with the 6 peptides for 2 hours in RPMI 1640 medium. After incubation with peptides, the cells were harvested, washed and stained with anti-mouse CD11c^+ APC-conjugated Ab (eBioscience, Clone: N418, 170114-82) and streptavidin-AF488. Cells were FACS analyzed by gating upon the CD11c^+ cell population, and the results are depicted in FIGS. 6 and 7.

[2] = system: CD11c^+ cells from cervical lymph nodes; test: In vivo dendritic cell targeting after intranasal administration; design: species or system BALB/c mice; details: 6.5 hours post-inoculation, compared to scrambled-peptide negative control
Protocol: The peptide at appropriate concentrations in a total volume of 10 μl/nostril was given intranasally to BALB/c mice. A scrambled peptide previously shown to be nonspecific to DCs was used as a negative control. At 6.5 hours post-inoculation, mice were sacrificed, and their cLNs were harvested. Single-cell suspensions were prepared by gently tearing the LN capsule. After gentle washing in 1×PBS, cells were stained with anti-mouse CD11c^+ APC-conjugated Ab (eBioscience, Clone: N418, 170114-82) and streptavidin-AF488, and FACS analysis was performed.

[3] = system: CD11c^+-BMDC; test: Cellular uptake of DC-targeting peptides by bone marrow-derived dendritic cells (FACS); type: cell-based, C57BL/6 mice; details: biotinylated peptides, 2 hours in RPMI 1640, FACS gated on CD11c+, compared with negative control
Protocol: as §1, §2

[4] = system: Bone marrow-derived dendritic cells (BMDCs); test: Cellular uptake of EF and DEF in BMDCs (flow cytometry); type: cell-based, C57BL/6 mice; details: 2 hours, anti-FlaB staining, FACS gated on CD11c+
Protocol: Cells treated with PBS alone were used as a negative control. After incubation, the cells were washed twice with cold 1×PBS containing 3% FBS and then stained with anti-mouse CD11c^+ antibody (eBioscience, Clone: N418, 25-0114-82) for 1 hour at 4° C. and fixed with 4% paraformaldehyde (T&I, BPP-9004) for 10 minutes at room temperature. The cells were permeabilized using a permeabilization kit according to the manufacturer's instructions (Invitrogen, 00-8333-56) and stained with anti-FlaB antibodies, followed by FACS analysis by gating upon the CD11c^+ population. The results are depicted in FIG. 14.

[5] = system: Bone marrow-derived dendritic cells (BMDCs); test: Antigen-presenting cell activation (CD80 and CD86 on BMDC surface); type: cell-based, C57BL/6 mice; details: 0.5 μg/ml, 24 hours
From the text: The cells were stained on ice with fluorophore-labeled antibodies before flow cytometry analysis.

[6] = biological target: T1, TLR5 (Homo sapiens, UniProt O60602); type: cell-based; details: HEK-Blue hTLR5 cells
T1 construct: host or cells: HEK-Blue hTLR5 cells (HEK293-derived reporter line, own knowledge: stably transfected with the human TLR5 gene and an NF-kB-inducible SEAP reporter)
T1 sequence (O60602 21-858): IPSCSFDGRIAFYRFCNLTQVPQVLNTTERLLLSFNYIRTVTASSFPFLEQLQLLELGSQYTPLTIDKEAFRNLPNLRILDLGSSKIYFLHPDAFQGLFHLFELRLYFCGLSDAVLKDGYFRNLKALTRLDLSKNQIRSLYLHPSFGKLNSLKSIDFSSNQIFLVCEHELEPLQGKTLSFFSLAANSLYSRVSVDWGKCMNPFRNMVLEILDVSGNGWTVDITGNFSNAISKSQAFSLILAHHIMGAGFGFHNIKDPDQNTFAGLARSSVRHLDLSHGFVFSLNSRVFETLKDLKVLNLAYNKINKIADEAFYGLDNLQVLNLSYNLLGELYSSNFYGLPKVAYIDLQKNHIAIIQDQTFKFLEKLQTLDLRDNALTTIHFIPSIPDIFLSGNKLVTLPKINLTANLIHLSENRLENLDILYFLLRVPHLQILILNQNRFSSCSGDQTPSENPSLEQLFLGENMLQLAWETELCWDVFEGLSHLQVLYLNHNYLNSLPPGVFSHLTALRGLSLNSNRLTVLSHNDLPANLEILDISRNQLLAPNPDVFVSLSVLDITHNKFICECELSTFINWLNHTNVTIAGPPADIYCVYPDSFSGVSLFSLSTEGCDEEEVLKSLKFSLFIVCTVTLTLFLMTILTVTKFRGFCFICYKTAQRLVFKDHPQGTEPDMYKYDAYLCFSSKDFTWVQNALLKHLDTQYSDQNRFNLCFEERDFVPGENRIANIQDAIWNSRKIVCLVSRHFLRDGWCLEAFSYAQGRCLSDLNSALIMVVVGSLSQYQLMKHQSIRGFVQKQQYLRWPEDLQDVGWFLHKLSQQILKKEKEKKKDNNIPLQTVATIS
Protocol: Also, the EC50 was calculated using triplicate OD 620 nm values for each protein concentration over a wide range of protein concentrations (0.0375 nM-19.29 nM at the AAT Bioquest website).

[7] = system: TC-1 cells; test: Efficacy of E7ΔNLS as tumor antigen in TC-1 tumor-bearing mice; type: in vivo, C57BL/6 mice; details: peritumoral injection three times at intervals of five days; 4 μg FlaB, 10 μg E7FL, 8 μg E7ΔNLS alone or combined
Protocol: Female SPF C57BL/6 mice 7 to 8 weeks old were purchased from ORIENT (Seongnam-si, Gyeonggi-do, Korea). TC-1 cells were cultured in RPMI 1640 medium supplemented with 10% heat-inactivated FIBS, 100 units/ml penicillin, and 100 μg/ml streptomycin at 37° C. under 5% CO2. Tumors were established in mice by subcutaneous injection of 5×10^4 TC-1 cells in 100 μl of PBS into the right mid-flank of each mouse. […] Tumor growth was monitored every three days. The tumor volume was calculated with formula V=(tumor length)×(tumor width)×(tumor height)/2.

Row | Molecule | cellular uptake in cervical lymph node cells, splenic dendritic cells and BMDCs (FIG. 7) [1] | targeting ability / cellular uptake of the peptides by bone marrow-derived dendritic cells (FIG. 6) [3] | also measured
1 | DCpep6: RFFCLGPLGFTKVD, SEQ ID NO: 6; dendritic cell-targeting peptide discovered by in vivo biopanning (peptide 6, and DCpep6) | remarkably higher specific signals | efficiently targeted; also recorded: remarkably higher efficiency | cellular uptake in cervical lymph node cells, splenic dendritic cells and BMDCs (FIG. 7) ([1]; listed as DCpep 6): increased cellular uptake; localization of peptide in cervical lymph node cells (FIG. 8) [2]: clearly localized in the cytoplasm of CD11c^+ cells
2 | DCpep 3: SPACLDLGLVPWKI, SEQ ID NO: 9; dendritic cell-targeting peptide, Arg replaced by Lys for biotinylation (SPACLDLGLVPWK(Biotin)I) | increased cellular uptake | efficiently targeted | 
3 | DCpep 4: VDLYPCYTFHSKVV, SEQ ID NO: 10; dendritic cell-targeting peptide, Arg replaced by Lys for biotinylation (VDLYPCYTFHSK(Biotin)VV; not fully specified) | increased cellular uptake | efficiently targeted | 
4 | B1 |  |  | cellular uptake in bone marrow-derived dendritic cells (FIG. 14) [4]: scarcely detected; expression of CD80 and CD86 on BMDC surface (FIG. 20) [5]: no statistical significance; NF-κB activity levels (FIG. 13) [6]: increased the activity in dose-dependent manners
5 | B2 |  |  | tumor suppression (tumor volume, FIGS. 11 and 12) [7]: did not manifest any suppressive effect

— patent US20240207380A1, “NOVEL PEPTIDE TARGETING DENDRITIC CELLS, AND COMPOSITION FOR TREATING CANCER COMPRISING SAME” (INDUSTRY FOUNDATION OF CHONNAM NATIONAL UNIVERSITY, priority 2021, published 2024)
